Results: PMC6201930 (PLoS ONE, 2018)
“And” between values parts separate entries of the source, which are not always exact repeats. Identical values can stand only once. Like-named read-outs stand apart in the source and are kept apart here.

How the values were obtained:
[1] = tested on: tGFP-CFTR542X-HA-HIS construct (codon 542 UGA) in 293H cells; assay: tGFP-542X readthrough assay (HA-HIS MSD immunoassay); assay type: cell-based, human
primary mouse myoblasts = assay: Cytotoxicity in myoblasts; conditions: read-out: Myoblast CC50
Description: (§1) When considering compounds for potential readthrough therapy it is important to monitor cellular and animal safety. In order to determine the most promising compounds to further evaluate in in vivo safety, we measured cytotoxicity in two different cell types. We used activated human peripheral blood mononuclear cells (PBMCs) (Table 2 and Fig 2D and 2E). PBMCs are a primary cell that when activated with phytohaemagglutinin (PHA) expand quickly and are commonly used as an in vitro surrogate for rapidly growing cells in the human body to evaluate cytotoxicity. Prior to advancing compounds into human studies, safety evaluation in rodents is performed. As an in vitro surrogate for rodent toxicity, we used primary mouse myoblasts.

[2] = tested on: zebrafish neuromasts (hair cells); assay: Neuromast toxicity assay (DASPEI staining)
[3] = tested on: activated human peripheral blood mononuclear cells (PBMCs); assay: Cytotoxicity in stimulated PBMCs (CellTitre-Glo ATP); conditions: read-out: Stimulated PBMC CC50
Description: as §1
Frozen human Peripheral Blood Mononuclear Cells (PBMCs) were obtained from […] (Alameda, CA, Cat# PB003F) from a single donor. […] Plates were incubated at 37°C with 5% CO2 for 4 hours prior to compound treatment. Compounds were serially diluted and added to the plates. Plates were incubated at 37°C, 5% CO2 incubator, for 72 hours prior to determinations of ATP levels. Cell viability was determined using a chemiluminescent assay to monitor adenosine triphosphate (ATP) levels in live cells (CellTitre-Glo; CTG; Promega, Cat#G7571). Methods were performed per the manufacturer’s instructions.

[4] = tested on: p53 R213* UGA premature termination codon in HDQ-P1 mammary carcinoma cells; assay: HDQ-p53UGA213 readthrough assay (full-length p53, MSD immunoassay); assay type: cell-based, human
Protocol: We utilized HDQ-P1 mammary carcinoma cells, which are homozygous for R213*, a UGA premature termination codon in the gene for the tumor suppressor protein p53 [30]. […] Western blot hybridization and Meso Scale Discovery (MSD) immunoassay detection of p53 were done as previously described. […] Cells (45K per well) were grown in 96-well plates and treated with compounds for 24 hours. […] Cells were lysed with 60 μl per well of lysis buffer (20 mM Tris-HCL, pH 7.5, 1 mM EGTA, 1 mM EDTA,150 mM Nacl, 0.5% Triton X100) for one hour at room temperature and 30 μl of lysate per well were transferred to the coated plate and incubated overnight at 4 °C. […] Plates were then washed three times with PBS-T and 30 μl of 0.25 μ/ml goat anti-rabbit IgG-Sulfo-tag antibody (MSD) in TBS-C was added and incubated for 1 hour at room temperature. Plates were then washed three times with PBS-T and 150 μl read buffer (MSD) was added. Plates were read immediately in a SECTOR S 600 (MSD).

[5] = tested on: fLuc mRNA harboring a UGA nonsense mutation at codon 190 (fLuc-190-NS); assay type: biochemical, rabbit
Description: ThefLuc-190-NS assay is an in vitro rabbit reticulocyte lysate translation of an fLuc mRNA harboring a UGA nonsense mutation at codon 190 (fLuc-190-NS). It is believed that positively charged aminoglycosides are poorly taken up by cells, and we used this cell-free readthrough assay to eliminate the potential variable of cell uptake when measuring readthrough potency. […] Readthrough protein was detected using a HA-HIS MSD immunoassay described previously.
This cell-free translation assay used synthetic LUC mRNAs harboring an EMCV IRES and LUC codon 190-UGA premature stop codon prepared using the MegaScript in vitro transcription kit (Ambion). Translation reactions were done with the Rabbit Reticulocyte Lysate System (Promega) with 100 ng RNA and increasing concentrations of aminoglycosides. The amount of luminescence produced was determined after approximately 4 hours using a Viewlux CCD imager (Perkin-Elmer). Fold suppression over background was calculated as (aminoglycoside light units/PBS light units).

mouse cochlear explants = tested on: mouse cochlear explants; set-up: method as in PMID 24251786; conditions: obtained previously; cited from earlier work
[6] = AVERAGE (S1 File), unit not given for EC5X
[7] = individual experiments (S1 File)
[8] = individual experiments (S1 File), unit not printed for EC5X (EC2X of the sheet in uM)
[9] = individual determinations (S1 File)

## C[C@@H](O)C1O[C@H](O[C@@H]2C(N)C[C@@H](NC(=O)[C@@H](O)CCN)[C@@H](O)C2O[C@@H]2O[C@H](CN)[C@H](O)C2O)[C@@H](N)C(O)[C@@H]1O (some centres unmarked) [NB84, reference compound]
[1]; 293H cells, 24 hours, average ± SD
  tGFP-542X EC2X: 38 ± 12 µM
[1]; AVERAGE (S1 File)
  tGFP-542X EC2X: 38.2 µM
  tGFP-542X Maxfold: 110.3
[1]; [6]
  tGFP-542X EC5X: 109.2
[1]; [7]
  tGFP-542X EC2X: 25 µM and 46 µM and 44 µM
  tGFP-542X Maxfold: 176 and 74 and 81
[1]; [8]
  tGFP-542X EC5X: 67 and 132 and 128
[1]; maximum readthrough above background, average ± SD
  tGFP-542X Maxfold: 110 ± 57 fold
Primary mouse myoblasts; AVERAGE (S1 File)
  CC50: 279 µM
Primary mouse myoblasts; [9]
  CC50: 411 µM and 147 µM
[2]; read-out: Neuromast (CC50), zebrafish embryos 5 dpf, 24 hours exposure, maximum of two measurements
  CC50: 8 ± 0.1 µM
[2]; read-out: Neuromast CC50, AVERAGE (S1 File)
  CC50: 7.9 µM
[2]; read-out: Neuromast CC50, individual determinations (S1 File)
  CC50: 7.8 µM
[3]; AVERAGE (S1 File)
  CC50: 440 µM
[3]; [9]
  CC50: 536 µM and 1160 µM and 179 µM and 156 µM and 173 µM
[4]; AVERAGE (S1 File)
  HDQ-p53UGA213 EC2X: 16.6 µM
  HDQ-p53UGA213 max: 29.7
[4]; concentration required to double the level of full-length p53 protein, average ± SD, at least three experiments, highest concentration 300 μM
  HDQ-p53UGA213 EC2X: 17 ± 5 µM
[4]; [7]
  HDQ-p53UGA213 EC2X: 20.31 µM and <15.63 µM and 17.59 µM and 8.82 µM and 19.52 µM
[4]; individual experiments (S1 File), max fold
  HDQ-p53UGA213 max: 15.6 and 52.2 and 25.2 and 30.9 and 25.4 and 29
[4]; maximum readthrough activity above background, average ± SD
  HDQ-p53UGA213 (Maxfold): 30 ± 12 fold
[5]; AVERAGE (S1 File)
  fLuc-190-NS EC2X: 0.0453 µM
  fLuc-190-NS MaxFold: 180.8
[5]; [6]
  fLuc-190-NS EC5X: 0.1430
[5]; cell-free, average ± SD
  fLuc-190-NS EC2X: 0.045 ± 0.011 µM
[5]; [7]
  fLuc-190-NS EC2X: 0.0389 µM and 0.0393 µM and 0.0578 µM
  fLuc-190-NS MaxFold: 172.62 and 163.42 and 206.48
[5]; [8]
  fLuc-190-NS EC5X: 0.1461 and 0.1276 and 0.1554
Mouse cochlear explants
  CC50: 20 µM
